Holding throughout (assay): cell-based
The target in one experiment is human Kv1.1 (Homo sapiens, UniProt Q09470). Also noted: expressed in transfected cells; host or cells: HEK293. Particulars: Kv1.1 (IC50, pM).
A further experiment concerns the target human Kv1.3 channel (Homo sapiens, UniProt P22001). The format is cell-based.
In another experiment the target is T1, human Kv1.1 (HEK293) (Homo sapiens, UniProt Q09470).
T1 construct: expressed in transfected cells; host or cells: HEK293

A further experiment deals with T2, human Kv1.3 (CHO) (Homo sapiens, UniProt P22001).
T2 construct: expressed in transfected cells; host or cells: CHO

Molecules are shown by their SMILES. pIC50: −log10 of the molar value. Bridge positions count the residues as written; N and C are the ends. Peptide text beside a SMILES is read from it. A value given as a limit tells only on which side of the number the result lay.

T1 sequence (Q09470 whole entry): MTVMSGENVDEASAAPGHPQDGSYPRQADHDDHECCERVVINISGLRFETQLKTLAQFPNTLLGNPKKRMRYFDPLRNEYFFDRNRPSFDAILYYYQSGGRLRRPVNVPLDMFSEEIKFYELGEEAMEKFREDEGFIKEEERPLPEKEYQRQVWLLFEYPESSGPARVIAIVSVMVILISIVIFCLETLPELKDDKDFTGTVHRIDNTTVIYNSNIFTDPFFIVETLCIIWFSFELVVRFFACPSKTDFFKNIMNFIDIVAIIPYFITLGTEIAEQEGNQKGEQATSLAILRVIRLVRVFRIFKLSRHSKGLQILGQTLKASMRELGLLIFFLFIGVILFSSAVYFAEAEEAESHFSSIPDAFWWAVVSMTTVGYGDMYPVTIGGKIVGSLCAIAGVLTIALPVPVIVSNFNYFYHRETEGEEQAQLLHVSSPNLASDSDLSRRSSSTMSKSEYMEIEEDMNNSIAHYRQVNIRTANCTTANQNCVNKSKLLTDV
human Kv1.1, sequence (Q09470 whole entry): as above
T2 sequence (P22001 whole entry): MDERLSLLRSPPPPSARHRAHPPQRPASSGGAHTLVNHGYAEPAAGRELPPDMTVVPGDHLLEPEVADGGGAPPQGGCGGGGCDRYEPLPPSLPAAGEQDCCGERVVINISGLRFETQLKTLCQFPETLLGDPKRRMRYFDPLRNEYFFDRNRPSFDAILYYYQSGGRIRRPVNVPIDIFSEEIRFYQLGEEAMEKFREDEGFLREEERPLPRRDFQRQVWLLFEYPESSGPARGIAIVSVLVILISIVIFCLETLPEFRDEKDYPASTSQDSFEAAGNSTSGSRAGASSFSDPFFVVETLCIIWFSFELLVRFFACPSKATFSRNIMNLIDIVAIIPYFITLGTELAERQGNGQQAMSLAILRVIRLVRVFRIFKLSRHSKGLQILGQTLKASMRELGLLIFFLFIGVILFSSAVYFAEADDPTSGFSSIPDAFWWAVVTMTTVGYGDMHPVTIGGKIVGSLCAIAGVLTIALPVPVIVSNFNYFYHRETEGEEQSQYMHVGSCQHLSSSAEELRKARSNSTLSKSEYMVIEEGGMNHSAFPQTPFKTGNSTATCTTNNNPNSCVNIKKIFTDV
human Kv1.3 channel, sequence (P22001 whole entry): as above

Turning to `CC[C@H](C)[C@@H]1NC(=O)[C@H](CCCCN)NC(=O)[C@@H](NC(=O)[C@H](CCCCN)NC(=O)[C@@H](NC(=O)[C@H](CC(N)=O)NC(=O)[C@@H](NC(=O)[C@@H](NC(=O)[C@@H](NC(=O)CN)C(C)C)[C@@H](C)CC)[C@@H](C)CC)C(C)C)CSSC[C@@H]2NC(=O)[C@H](CCCCN)NC(=O)CNC(=O)[C@H](Cc3ccccc3)NC(=O)[C@H](CCCNC(=N)N)NC(=O)[C@H](CCSC)NC(=O)CNC(=O)[C@H](C)NC(=O)[C@H](CCCCN)NC(=O)[C@H](CCCCN)NC(=O)[C@@H]3CSSC[C@@H](C(=O)N[C@H](C(=O)N4CCC[C@H]4C(=O)N[C@@H](CCCCN)C(=O)O)[C@@H](C)O)NC(=O)[C@H](C)NC(=O)[C@H](CSSC[C@H](NC(=O)[C@H](CCC(N)=O)NC(=O)[C@H](CCCNC(=N)N)NC(=O)[C@H](CO)NC1=O)C(=O)N[C@@H](CC(C)C)C(=O)N[C@@H](CCC(=O)O)C(=O)N1CCC[C@H]1C(=O)N3)NC(=O)[C@H](CCCCN)NC(=O)CNC(=O)[C@H](CC(N)=O)NC(=O)[C@H](CCSC)NC2=O` [H34A] (H-GVIINVKCKISRQCLEPCKKAGMRFGKCMNGKCACTPK-OH; disulfide 8-28, 14-33, 18-35), 12800 pM corresponded to half-maximal inhibition against human Kv1.1 (IC50). The results for the pIC50 against human Kv1.3 channel, against human Kv1.1 (HEK293) and on human Kv1.3 (CHO) were 10.80, 9.43 and 10.71, respectively.
For `CC[C@H](C)[C@@H]1NC(=O)[C@H](CCCCN)NC(=O)[C@@H](NC(=O)[C@H](CCCCN)NC(=O)[C@@H](NC(=O)[C@H](CC(N)=O)NC(=O)[C@@H](NC(=O)[C@@H](NC(=O)[C@@H](NC(=O)CN)C(C)C)[C@@H](C)CC)[C@@H](C)CC)C(C)C)CSSC[C@@H]2NC(=O)[C@H](CCCCN)NC(=O)CNC(=O)[C@H](Cc3ccccc3)NC(=O)[C@H](CCCNC(=N)N)NC(=O)[C@H](CCSC)NC(=O)CNC(=O)[C@H](C)NC(=O)[C@H](CCCCN)NC(=O)[C@H](CCCCN)NC(=O)[C@@H]3CSSC[C@@H](C(=O)N[C@H](C(=O)N4CCC[C@H]4C(=O)N[C@@H](CCCCN)C(=O)O)[C@@H](C)O)NC(=O)[C@H](CCC(=O)O)NC(=O)[C@H](CSSC[C@H](NC(=O)[C@H](CCC(N)=O)NC(=O)[C@H](CCCNC(=N)N)NC(=O)[C@H](CO)NC1=O)C(=O)N[C@@H](CC(C)C)C(=O)N[C@@H](CCC(=O)O)C(=O)N1CCC[C@H]1C(=O)N3)NC(=O)[C@H](CCCCN)NC(=O)CNC(=O)[C@H](CC(N)=O)NC(=O)[C@H](CCSC)NC2=O` [H34E] (H-GVIINVKCKISRQCLEPCKKAGMRFGKCMNGKCECTPK-OH; disulfide 8-28, 14-33, 18-35), in that order: 39400 pM, 8.88, 8.77 and 9.48.
The corresponding values for `CC[C@H](C)[C@@H]1NC(=O)[C@H](CCCCN)NC(=O)[C@@H](NC(=O)[C@H](CCCCN)NC(=O)[C@@H](NC(=O)[C@H](CC(N)=O)NC(=O)[C@@H](NC(=O)[C@@H](NC(=O)[C@@H](NC(=O)CN)C(C)C)[C@@H](C)CC)[C@@H](C)CC)C(C)C)CSSC[C@@H]2NC(=O)[C@H](CCCCN)NC(=O)CNC(=O)[C@H](Cc3ccccc3)NC(=O)[C@H](CCCNC(=N)N)NC(=O)[C@H](CCSC)NC(=O)CNC(=O)[C@H](C)NC(=O)[C@H](CCCCN)NC(=O)[C@H](CCCCN)NC(=O)[C@@H]3CSSC[C@@H](C(=O)N[C@H](C(=O)N4CCC[C@H]4C(=O)N[C@@H](CCCCN)C(=O)O)[C@@H](C)O)NC(=O)[C@H](Cc4c[nH]cn4)NC(=O)[C@H](CSSC[C@H](NC(=O)[C@H](CCC(N)=O)NC(=O)[C@H](CCCNC(=N)N)NC(=O)[C@H](CO)NC1=O)C(=O)N[C@@H](CCC(=O)O)C(=O)N[C@@H](CCC(=O)O)C(=O)N1CCC[C@H]1C(=O)N3)NC(=O)[C@H](CCCCN)NC(=O)CNC(=O)[C@H](CC(N)=O)NC(=O)[C@H](CCSC)NC2=O` [L15E] (H-GVIINVKCKISRQCEEPCKKAGMRFGKCMNGKCHCTPK-OH; disulfide 8-28, 14-33, 18-35) are 65000 pM, 9.72, 9.36 and 10.32.
`CC[C@H](C)[C@@H]1NC(=O)[C@H](CCCCN)NC(=O)[C@@H](NC(=O)[C@H](CCCCN)NC(=O)[C@@H](NC(=O)[C@H](CC(N)=O)NC(=O)[C@@H](NC(=O)[C@@H](NC(=O)[C@@H](NC(=O)CN)C(C)C)[C@@H](C)CC)[C@@H](C)CC)C(C)C)CSSC[C@@H]2NC(=O)[C@H](CCCCN)NC(=O)CNC(=O)[C@H](Cc3ccccc3)NC(=O)[C@H](CCCNC(=N)N)NC(=O)[C@H](CCSC)NC(=O)CNC(=O)[C@H](C)NC(=O)[C@H](CCCCN)NC(=O)[C@H](CCCCN)NC(=O)[C@@H]3CSSC[C@@H](C(=O)N[C@H](C(=O)N4CCC[C@H]4C(=O)N[C@@H](CCCCN)C(=O)O)[C@@H](C)O)NC(=O)[C@H](Cc4c[nH]cn4)NC(=O)[C@H](CSSC[C@H](NC(=O)[C@H](CCC(N)=O)NC(=O)[C@H](CCCNC(=N)N)NC(=O)[C@H](CO)NC1=O)C(=O)N[C@@H](CC(C)C)C(=O)N[C@@H](CCC(=O)O)C(=O)N1CCC[C@H]1C(=O)N3)NC(=O)[C@H](CCCCN)NC(=O)CNC(=O)[C@H](CC(N)=O)NC(=O)[C@H](C)NC2=O` [M29A] (H-GVIINVKCKISRQCLEPCKKAGMRFGKCANGKCHCTPK-OH; disulfide 8-28, 14-33, 18-35) displayed a half-inhibitory concentration (IC50) against human Kv1.1 of 3470 pM. Also, the pIC50 on human Kv1.1 (HEK293) was less than 8.48; on human Kv1.3 (CHO) it was 10.23.
`CC[C@H](C)[C@@H]1NC(=O)[C@H](CCCCN)NC(=O)[C@@H](NC(=O)[C@H](CCCCN)NC(=O)[C@@H](NC(=O)[C@H](CC(N)=O)NC(=O)[C@@H](NC(=O)[C@@H](NC(=O)[C@@H](NC(=O)CN)C(C)C)[C@@H](C)CC)[C@@H](C)CC)C(C)C)CSSC[C@@H]2NC(=O)[C@H](CCCCN)NC(=O)CNC(=O)[C@H](Cc3ccccc3)NC(=O)[C@H](CCCNC(=N)N)NC(=O)[C@H](CCSC)NC(=O)CNC(=O)[C@H](C)NC(=O)[C@H](CCCCN)NC(=O)[C@H](CCCCN)NC(=O)[C@@H]3CSSC[C@@H](C(=O)N[C@H](C(=O)N4CCC[C@H]4C(=O)N[C@@H](CCCCN)C(=O)O)[C@@H](C)O)NC(=O)[C@H](Cc4c[nH]cn4)NC(=O)[C@H](CSSC[C@H](NC(=O)[C@H](CCC(N)=O)NC(=O)[C@H](CCCNC(=N)N)NC(=O)[C@H](CO)NC1=O)C(=O)N[C@@H](CC(C)C)C(=O)N[C@@H](CCC(=O)O)C(=O)N1CCC[C@H]1C(=O)N3)NC(=O)[C@H](CCCCN)NC(=O)CNC(=O)[C@H](CC(N)=O)NC(=O)[C@H](CCCNC(=N)N)NC2=O` [M29R] (H-GVIINVKCKISRQCLEPCKKAGMRFGKCRNGKCHCTPK-OH; disulfide 8-28, 14-33, 18-35) had an IC50 on human Kv1.1 of 23000 pM. Besides, the pIC50 was 9.12 on human Kv1.3 channel, 8.73 on human Kv1.1 (HEK293) and 9.70 against human Kv1.3 (CHO).
For `CC[C@H](C)[C@@H]1NC(=O)[C@H](CCCCN)NC(=O)[C@@H](NC(=O)[C@H](CCCCN)NC(=O)[C@@H](NC(=O)[C@H](CC(N)=O)NC(=O)[C@@H](NC(=O)[C@@H](NC(=O)[C@@H](NC(=O)CN)C(C)C)[C@@H](C)CC)[C@@H](C)CC)C(C)C)CSSC[C@@H]2NC(=O)[C@H](CCCCN)NC(=O)CNC(=O)[C@H](Cc3ccccc3)NC(=O)[C@H](CCCNC(=N)N)NC(=O)[C@H](CCSC)NC(=O)CNC(=O)[C@H](C)NC(=O)[C@H](CCCCN)NC(=O)[C@H](CCCCN)NC(=O)[C@@H]3CSSC[C@@H](C(=O)N[C@H](C(=O)N4CCC[C@H]4C(=O)N[C@@H](CCCCN)C(=O)O)[C@@H](C)O)NC(=O)[C@H](Cc4c[nH]cn4)NC(=O)[C@H](CSSC[C@H](NC(=O)[C@H](CCC(N)=O)NC(=O)[C@H](CCCNC(=N)N)NC(=O)[C@H](CO)NC1=O)C(=O)N[C@@H](CC(C)C)C(=O)N[C@@H](CCC(=O)O)C(=O)N1CCC[C@H]1C(=O)N3)NC(=O)[C@H](CCCCN)NC(=O)CNC(=O)[C@H](C)NC(=O)[C@H](CCSC)NC2=O` [N30A] (H-GVIINVKCKISRQCLEPCKKAGMRFGKCMAGKCHCTPK-OH; disulfide 8-28, 14-33, 18-35), in that order: 10200 pM, 9.12, less than 8.52 and 9.16.
For `CC[C@H](C)[C@@H]1NC(=O)[C@H](CCCCN)NC(=O)[C@@H](NC(=O)[C@H](CCCCN)NC(=O)[C@@H](NC(=O)[C@H](CC(N)=O)NC(=O)[C@@H](NC(=O)[C@@H](NC(=O)[C@@H](NC(=O)CN)C(C)C)[C@@H](C)CC)[C@@H](C)CC)C(C)C)CSSC[C@@H]2NC(=O)[C@H](CCCCN)NC(=O)CNC(=O)[C@H](Cc3ccccc3)NC(=O)[C@H](CCCNC(=N)N)NC(=O)[C@H](CCSC)NC(=O)CNC(=O)[C@H](C)NC(=O)[C@H](CCCCN)NC(=O)[C@H](CCCCN)NC(=O)[C@@H]3CSSC[C@@H](C(=O)N[C@H](C(=O)N[C@@H](CCC(=O)O)C(=O)N[C@@H](CCCCN)C(=O)O)[C@@H](C)O)NC(=O)[C@H](Cc4c[nH]cn4)NC(=O)[C@H](CSSC[C@H](NC(=O)[C@H](CCC(N)=O)NC(=O)[C@H](CCCNC(=N)N)NC(=O)[C@H](CO)NC1=O)C(=O)N[C@@H](CC(C)C)C(=O)N[C@@H](CCC(=O)O)C(=O)N1CCC[C@H]1C(=O)N3)NC(=O)[C@H](CCCCN)NC(=O)CNC(=O)[C@H](CC(N)=O)NC(=O)[C@H](CCSC)NC2=O` [P37E] (H-GVIINVKCKISRQCLEPCKKAGMRFGKCMNGKCHCTEK-OH; disulfide 8-28, 14-33, 18-35), in that order: 15700 pM, 9.62, 9.21 and 10.20.

These data come from patent publication US20090299044A1 (priority 2006, published 2009).
